Measured values: patent US12637437B2, “Herbicidal compounds” (SYNGENTA CROP PROTECTION AG, priority 2021, dated 2026)

How the values were obtained:
Format in all cases: in vivo
[1] = tested on: Amaranthus retoflexus (AMARE); test: Post-emergence herbicidal glasshouse test, AMARE; set-up: dose or concentration left out as unconfirmed; settings: evaluated after 13 days, five-point scale
Protocol: (§1) Seeds of a variety of test species are sown in standard soil in pots (Lolium perenne (LOLPE), Amaranthus retoflexus (AMARE), Abutilon theophrasti (ABUTH), Setaria faberi (SETFA), Echinochloa crus-galli (ECHCG), Ipomoea hederacea (IPOHE)). After cultivation for one day (pre-emergence) or after 8 days cultivation (post-emergence) under controlled conditions in a glasshouse (at 24/16° C., day/night; 14 hours light; 65% humidity), the plants are sprayed with an aqueous spray solution derived from the formulation of the technical active ingredient in acetone/water (50:50) solution containing 0.5% Tween 20 (polyoxyethelyene sorbitan monolaurate, CAS RN 9005-64-5). Compounds are applied at 125 g/h unless otherwise indicated. The test plants are then grown in a glasshouse under controlled conditions in a glasshouse (at 24/16° C., day/night; 14 hours light; 65% humidity) and watered twice daily. After 13 days for pre and post-emergence, the test is evaluated for the percentage damage caused to the plant. The biological activities are shown in the following table on a five-point scale (5=80-100%; 4=60-79%; 3=40-59%; 2=20-39%; 1=0-19%). “—” denotes not tested on this species or data not captured.

[2] = tested on: Setaria faberi (SETFA); test: Post-emergence herbicidal glasshouse test, SETFA; settings: 125 g/h, evaluated after 13 days, five-point scale
Protocol: as §1

[3] = tested on: Echinochloa crus-galli (ECHCG); test: Post-emergence herbicidal glasshouse test, ECHCG; settings: 125 g/h, evaluated after 13 days, five-point scale
Protocol: as §1

[4] = tested on: Ipomoea hederacea (IPOHE); test: Post-emergence herbicidal glasshouse test, IPOHE; settings: 125 g/h, evaluated after 13 days, five-point scale
Protocol: as §1

[5] = tested on: Amaranthus retoflexus (AMARE); test: Pre-emergence herbicidal glasshouse test, AMARE; settings: 125 g/h, evaluated after 13 days, five-point scale
Protocol: as §1

[6] = tested on: Setaria faberi (SETFA); test: Pre-emergence herbicidal glasshouse test, SETFA; settings: 125 g/h, evaluated after 13 days, five-point scale
Protocol: as §1

[7] = tested on: Echinochloa crus-galli (ECHCG); test: Pre-emergence herbicidal glasshouse test, ECHCG; settings: 125 g/h, evaluated after 13 days, five-point scale
Protocol: as §1

[8] = tested on: Ipomoea hederacea (IPOHE); test: Pre-emergence herbicidal glasshouse test, IPOHE; settings: 125 g/h, evaluated after 13 days, five-point scale
Protocol: as §1

Structure (SMILES)	percentage damage caused to the plant, POST Application AMARE [1]	percentage damage caused to the plant, POST Application SETFA [2]	percentage damage caused to the plant, POST Application ECHCG [3]	percentage damage caused to the plant, POST Application IPOHE [4]	percentage damage caused to the plant, PRE Application AMARE [5]	percentage damage caused to the plant, PRE Application SETFA [6]	percentage damage caused to the plant, PRE Application ECHCG [7]	percentage damage caused to the plant, PRE Application IPOHE [8]
COC(=O)Nc1c(OC(F)(F)F)ccc(C(=O)Nc2nnnn2C)c1C [Compound 1.035]	5 (5=80-100%)	5 (5=80-100%)	5 (5=80-100%)	3 (3=40-59%)	5 (5=80-100%)	5 (5=80-100%)	5 (5=80-100%)	3 (3=40-59%)
CCOC(=O)Nc1c(OC(F)(F)F)ccc(C(=O)Nc2nnnn2C)c1C [Compound 1.036]	5 (5=80-100%)	5 (5=80-100%)	5 (5=80-100%)	5 (5=80-100%)	5 (5=80-100%)	5 (5=80-100%)	5 (5=80-100%)	5 (5=80-100%)
Cn1nnnc1NC(=O)c1ccc(OC(F)F)c(N2CCOC2=O)c1Cl [Compound 1.037]	5 (5=80-100%)	5 (5=80-100%)	5 (5=80-100%)	5 (5=80-100%)	5 (5=80-100%)	5 (5=80-100%)	5 (5=80-100%)	5 (5=80-100%)
CCOC(=O)N(C)c1c(OC(F)F)ccc(C(=O)Nc2nnnn2C)c1Cl [Compound 1.041]	5 (5=80-100%)	5 (5=80-100%)	5 (5=80-100%)	5 (5=80-100%)	5 (5=80-100%)	4 (4=60-79%)	5 (5=80-100%)	4 (4=60-79%)
COC(=O)N(C)c1c(OC(F)F)ccc(C(=O)Nc2nnnn2C)c1Cl [Compound 1.042]	5 (5=80-100%)	5 (5=80-100%)	5 (5=80-100%)	5 (5=80-100%)	5 (5=80-100%)	5 (5=80-100%)	5 (5=80-100%)	4 (4=60-79%)
CCN(C(=O)OC)c1c(OC(F)F)ccc(C(=O)Nc2nnnn2C)c1Cl [Compound 1.043]	5 (5=80-100%)	5 (5=80-100%)	5 (5=80-100%)	4 (4=60-79%)	5 (5=80-100%)	5 (5=80-100%)	5 (5=80-100%)	3 (3=40-59%)
CCOC(=O)N(CC)c1c(OC(F)F)ccc(C(=O)Nc2nnnn2C)c1Cl [Compound 1.044]	5 (5=80-100%)	5 (5=80-100%)	5 (5=80-100%)	4 (4=60-79%)	5 (5=80-100%)	4 (4=60-79%)	5 (5=80-100%)	2 (2=20-39%)
